PubChem BioAssay AID449764 (Southern Research Specialized Biocontainment Screening …, 2010)

System: Mycobacterium tuberculosis H37Rv growth inhibition, no glycerol
Experiment: Confirmatory growth inhibition assay, Mycobacterium tuberculosis H37Rv, absence of glycerol (AID 449764);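 note: growth read after 7 days of incubation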
Details: for IC90: measured here: IC90 growth inhibition

Structure (SMILES) | IC50 | IC90
S=C(Nc1ccc(Cl)cc1)Nc1cccc2cnccc12 | 5.63 µM | 5.92 µM
CC(C)(C)NC(=O)C(=O)NNC(=O)c1ccc(C(C)(C)C)cc1 | 14.4 µM | > 100 µM
COc1ccc(CNc2ncnc3c2[nH]c2cc(OC)c(OC)cc23)cc1 | 80.7 µM | 89.5 µM
COC(=O)c1cc(Sc2cccc(Cl)c2Cl)ccn1 | 29 µM | 40.5 µM
Cc1ccc(NCc2ccc(O)c3ncccc23)cc1C | 96.3 µM | > 100 µM
CNc1nc(SCc2ccccc2Cl)nc2c1CCCC2 | 0.45 µM | 1.21 µM
Cc1ccc(NC(=S)N(CCCN2CCCC2)Cc2cccn2Cc2ccc(Cl)cc2)cc1C | 75.5 µM | > 100 µM
Cc1cccc(NC(=O)CCSc2nnc(Cc3ccccc3)o2)c1 | 38.1 µM | > 100 µM
O=C(Nc1ncc(Cc2ccccc2Cl)s1)C1=NCCN1 | 23.7 µM | > 100 µM
O=C(N[C@H]1CCC(=O)N(CCSc2ccc(Br)cc2)CC1)OCc1ccccc1 | 32.9 µM | 46.6 µM
O=C1Nc2ccc(Br)cc2C12NNc1ccccc1O2 (centres undefined) | 44.1 µM | 62.9 µM
CCc1nnc(NC(=O)CN2CCN(c3nc(-c4ccccc4)cs3)CC2)s1 | 42.6 µM | 92.6 µM
O=[N+]([O-])c1cc([N+](=O)[O-])c2cc3ccccc3nc2c1 | < 0.2 µM | 0.64 µM
COc1ccc(-c2cc3nc(CCl)[nH]c(=O)c3s2)cc1 | 5.94 µM | 6.45 µM
C=CCOc1ccc2c(c1)C(=NO)c1cc(OCC=C)ccc1-2 | 28 µM | > 100 µM
O=c1c(-c2cnn(-c3ccccc3)c2)coc2cc(O)ccc12 | 48.1 µM | > 100 µM
CN1CCN(c2cc(-c3ccccc3)nc3cc(-c4ccc(F)cc4)nn23)CC1 | 16.4 µM | 42.2 µM
COc1ccc(-n2cc(CNCCc3cscn3)c(-c3ccccc3Cl)n2)cc1 | 27.8 µM | 35.9 µM
COc1ccc(N/C=C/C(=O)c2sc(-c3ccccc3)nc2C)cc1 | 79.3 µM | > 100 µM
Cc1ccc(S(=O)(=O)NCc2ccc(C(=O)NCCCN3CCC(Cc4ccccc4)CC3)cc2)cc1 | – | > 100 µM
CC(C)OC(=O)/C(C#N)=C/c1ccc(-c2ccc(SC(F)F)cc2)o1 | 5.19 µM | 8.24 µM
O=C(CSc1nnnn1C1CCCCC1)Nc1nc2c(s1)CCCC2 | 46.9 µM | 53.1 µM
CCN(CC)C(=O)Oc1ccc2c(=O)c(-c3ccc(OC)cc3)coc2c1 | 52.8 µM | > 100 µM

Structure (SMILES) | IC50 | IC90
O=C1C(=O)N(c2ccccc2)c2ccccc21 | 17.8 µM | 34 µM
Cc1ccc(-n2c(Cl)c(Cl)nc(Cl)c2=O)cc1 | 16.3 µM | 24.8 µM
Cc1ccc(-c2noc(=O)n2CC(=O)c2ccc(Cl)cc2)cc1 | – | > 50 µM
CC1(C)Cc2c(cnn2-c2ccccc2)-c2c1c1ccccc1n2CC(O)CCl (centres undefined) | 95.4 µM | > 100 µM
Cc1ccc2c(c1)c(C1=c3ccccc3=NC1=O)c(O)n2C | 2.95 µM | 4.82 µM
CC(=O)c1c(C)n(C)c2ccc(OC(=O)c3ccc([N+](=O)[O-])cc3)cc12 | 19.8 µM | > 100 µM
CCOC(=O)CNc1ccc(C(=O)OCC)cc1[N+](=O)[O-] | 18.1 µM | > 100 µM
OCC1(Cc2cccc(Cl)c2)CCCN(Cc2ccc3cc(F)ccc3n2)C1 (centres undefined) | 38.2 µM | 54.6 µM
O=C1C2C(c3ccccc3)(C(=O)N1c1ccc(Cl)cc1)C2(c1ccccc1)c1ccccc1 (centres undefined) | 11.6 µM | 13.6 µM
CCOC(=O)C1CCN(c2nc3cc(OC)ccc3cc2C#N)CC1 | 83.5 µM | > 100 µM
CCc1nnc(NS(=O)(=O)c2ccc(N/C=C\C(=O)c3cccc(OC)c3)cc2)s1 | 38.5 µM | 53 µM
O=C(Nc1cccc(Cl)c1)N1CCN(C/C=C/c2ccccc2)CC1 | 35 µM | 51.3 µM
Cc1noc(C)c1COc1ccc(C(=O)OCC(=O)NC23CC4CC(CC(C4)C2)C3)cc1 | 23.9 µM | 35.5 µM
Cc1ccc(C(=O)N2N=C(c3ccc(NS(C)(=O)=O)cc3)CC2c2cccs2)cc1 (centres undefined) | 23.6 µM | 37.5 µM
Cc1cccc(N2CCN(CCCNC(=O)c3ccc(NC(=O)C4=CSCCO4)cc3)CC2C)c1 (centres undefined) | 19.7 µM | 28.7 µM
CCOC(=O)c1ccc(NC(=S)NCCc2ccc(F)cc2)cc1 | 75.3 µM | > 100 µM
COc1cccc(CC2(CO)CCCN(Cc3[nH]c4ccc(C)cc4c3C)C2)c1 (centres undefined) | 40.8 µM | 55.8 µM
O=C(CSc1nc2ccccc2nc1N1CCOCC1)N1CCN(c2ccccc2)CC1 | 11.8 µM | 14 µM
FC(F)(F)c1cc(CO[C@@H]2CCCN[C@@H]2c2ccccc2)cc(C(F)(F)F)c1 | 27.4 µM | 38.2 µM
COc1cc(C)ccc1S(=O)(=O)N1CCN(C23CC4CC(CC(C4)C2)C3)CC1 | 46.5 µM | 51.1 µM
Cc1[nH][nH]c(=O)c1C(c1ccc(-c2ccc(Cl)c(Cl)c2)o1)c1c(C)[nH][nH]c1=O | 82.1 µM | > 100 µM
Cc1ccc2[nH]c(C)c(CCNC(=O)c3cc4cc([N+](=O)[O-])ccc4oc3=O)c2c1 | 11.2 µM | 17.8 µM
Cn1c2ccccc2c2cc(C(=O)NNC(=O)CCl)sc21 | 4.41 µM | 8.11 µM

Structure (SMILES) | IC50 | IC90
Cc1cccc2c1-c1sc(C(=O)Nc3ccccc3N3CCN(C)CC3)cc1CO2 | 24.1 µM | 27.6 µM
CC1CC(C)CN(C(=O)C2CCC(CNc3c(N4CCCCC4)c(=O)c3=O)CC2)C1 (centres undefined) | 45.8 µM | > 100 µM
CC(=O)c1ccc(Sc2nnnn2-c2ccccc2)c([N+](=O)[O-])c1 | 19.8 µM | 31.8 µM
Cc1ccnc(NC(=O)c2cc3ccccc3o2)c1 | – | > 50 µM
COc1ccc(CNC(=O)c2c(N)n(CCCN3CCOCC3)c3nc4ccccc4nc23)cc1 | 92.4 µM | > 100 µM
O=C(CSc1nc2ncc(Br)cc2[nH]1)Nc1ccc2c(c1)OCO2 | 25.1 µM | > 100 µM
CCCCNc1nc(N(C)c2ccccc2)nc(-n2ccnc2)n1 | – | > 100 µM
NNC(=S)NCc1ccc2c(c1)OCO2 | 99.3 µM | > 100 µM
O=C(COC(=O)C1=COCCO1)Nc1cccc(Oc2ccccc2)c1 | 9.49 µM | 37.2 µM
CS(=O)(=O)c1ncc(Cl)c(C(=O)Nc2ccc(OC(F)F)cc2)n1 | 13.6 µM | > 25 µM
Cc1cccc(-c2ncc(CN3CCC(CO)(CCCc4ccccc4)CC3)cn2)c1 | 48.5 µM | 55.1 µM
CCCCCCCCn1c2c(c(=N)c3c1CCC3)CCCC2 | 22.6 µM | 25.8 µM
Cc1ccc2cc(C)c(N3CCN(c4ccccn4)CC3)nc2c1 | 43.1 µM | 46.7 µM
Cc1c([N+](=O)[O-])cnc(Sc2ccccc2)c1[N+](=O)[O-] | 5.8 µM | 9.94 µM
CCOc1ccc(NC(=O)CCc2nnc3ccc(N4CCC(C)CC4)nn23)cc1 | 12.5 µM | 14.7 µM
Clc1ccc(-c2cc3ccccc3nc2N2CCCC2)cc1 | 71.6 µM | > 100 µM
CCCn1c(=N)n(CC(=O)c2ccc(OCC(=O)OC)cc2)c2ccccc21 | 20.1 µM | 35.9 µM
c1ccc(CN2CCC(Nc3nc(-c4ccccc4)nc4ccccc34)CC2)cc1 | 10.9 µM | 16.6 µM
COc1c(C)cc(C(=O)C2CCCN(Cc3ccccn3)C2)cc1C (centres undefined) | 20.2 µM | 29.7 µM
O=c1c(Cl)nc2cc(Cl)ccc2n1CCNc1ncc(C(F)(F)F)cc1Cl | 2.97 µM | 3.37 µM
O=[N+]([O-])c1ccc(-c2nc(-c3cccs3)c(-c3cccs3)[nH]2)cc1 | 20.8 µM | > 100 µM
CC[N+](C)(CC)CCCCOc1ccc2c(c1)C(=O)c1cc(OCCCC[N+](C)(CC)CC)ccc1-2 | 1.68 µM | 2.11 µM
O=C(CN1CCN(c2ccccc2O)CC1)Nc1ccccc1C(=O)NCCc1ccccc1 | 72.7 µM | > 100 µM

Structure (SMILES) | IC50 | IC90
CCCn1nc(C(=O)NNC(=O)c2ccc(C)c(C)c2)c2ccccc2c1=O | 24.6 µM | 27.9 µM
CCCCC(O)(CCCC)C(=O)NN(C(=O)CCl)c1ccccc1 | 11.1 µM | 22.8 µM
CCOc1cc(/C=N/Nc2nc(Nc3ccccc3)nc(N3CCCCC3)n2)ccc1OCC(=O)O | 20.5 µM | 27.6 µM
Cc1ccc2c(c1)c(/C=C/c1cc[n+](C)cc1)c(C)n2C | 5.82 µM | 6.61 µM
CN1C(=O)/C(=C/c2cccc(Cl)c2)Sc2ccc(C(=O)N3CCCC3)cc21 | 20.6 µM | 49.9 µM
Cc1cccc(N2CCN(CC(=O)Nc3nccs3)CC2)c1C | 39.3 µM | 69.2 µM
CCCCOc1ccc(C(=O)Oc2ccc(C)nc2)cc1 | 54.8 µM | 78.8 µM
Cc1cc(OCc2cc(C(=O)N(C)CCc3cnn(C)c3)no2)cc(C)c1Cl | 34.5 µM | 56.2 µM
CC1=CC(=O)C(C(C)C)=C/C1=N/OS(=O)(=O)c1ccccc1 | 4.28 µM | 7.65 µM
CCOC(=O)CSC1=C(C#N)C(c2ccc(C)cc2)C2=C(CCCC2=O)N1 (centres undefined) | 46.6 µM | > 100 µM
CC1CCN(C(=S)NC(=O)c2cccs2)CC1 | 23 µM | 26.3 µM
CN(C)CCCN(C(=O)c1cc(-c2cccs2)nc2ccccc12)c1nc2ccc(F)cc2s1 | 34.9 µM | 54.3 µM
C/C(=N\NC(N)=S)c1ccc(Cl)s1 | 11.8 µM | 23.4 µM
C/C(Cl)=C\COc1cc(C)nc2c(Br)cccc12 | 21.2 µM | 24.4 µM
Cc1cc2c(cc1C)/C(=N/NC(=O)c1ccccn1)CCC2 | 24.2 µM | 53.6 µM
CCOc1cc(/C=C\[N+](=O)[O-])ccc1OCC(=O)Nc1ccccc1C | 29.8 µM | 59 µM
Cc1c(Cl)ccc2c1NC(=O)[C@]21N[C@@H](Cc2ccccc2)[C@H]2C(=O)N(c3ccc(F)cc3)C(=O)[C@H]21 | 23.4 µM | 26.6 µM
CCCOC(=O)CSc1nc(N2CCOCC2)c2c(c1C#N)CC(C)(C)OC2 | 23.9 µM | 42.5 µM
Cc1cccc(C)c1Nc1c(-c2ccccn2)nc2ccccn12 | 5.93 µM | 8.59 µM
COC(=O)CCCCC1SCC(NC(=O)c2ccccc2)C1=O (centres undefined) | 36.9 µM | 49.8 µM
